Measured values from patent publication US7132454B2, “HEXIM1 as a suppressor of HIV replication and cardiac hypertrophy” (Regents of the University of California, priority 2004, dated 2006).

What was measured:
HSV = conditions: cited from earlier work
[1] = tested on: human vascular smooth muscle cell (VSMC); conditions: cited from earlier work
cardiac hypertrophy = assay: HMBA infusion in patients having or susceptible to cardiac hypertrophy; type: in vivo; conditions: 24 g/m^2/d in 10-day courses
Procedure: Genetic testing, and/or ECG and echocardiography are used to diagnose patients susceptible to hypertrophic cardiomyopathy using methods described by Charron et al. (1997 & 2003). For genetic testing, candidate patients are from families involved in genetic studies in whom genetic analyses are performed and the causative mutation identified. Patients are identified as being at risk of inheriting the disease gene, i.e., they have a first-degree relative clinically affected by hypertrophic cardiomyopathy. The major diagnostic criteria for echocardiography are a left ventricular wall thickness >13 mm and, for ECG, abnormal Q waves, left ventricular hypertrophy, and marked ST-T changes. Clinical evaluation is performed, and blood samples are obtained. Using methods adapted from Andreeff et al. (1992), patients diagnosed as having or susceptible to cardiac hypertrophy are given HMBA treatment. A 5% solution of HMBA (NSC-95580) in distilled water is provided in 500-ml infusion bottles (25 g total per bottle). HMBA is administered at a dose of 24 g/m^2/d in 10-day courses, followed by an 18- to 75-day observation period. Plasma levels are determined daily (at 24 hours into the infusion). […] HMBA plasma levels are determined using HPLC.

HIV = conditions: cited from earlier work
[2] = tested on: right ventricular myocytes; assay: myocardial infarction model, HMBA by osmotic minipump; ventricular myocyte hypertrophy and action potential; type: in vivo, male Wistar rats
Excerpt: In a method adapted from Perrier et al. (2004), myocardial infarction (MI) is induced in 250 to 280 g male Wistar rats by left coronary artery ligation. Only post-MI hearts that show a transmural scar are used. An osmotic minipump (Alzet 2ML4) is implanted subcutaneously at the time of surgery to deliver varying amounts of HMBA or other HPC. Control animals receive carrier solution only. Cellular responses are examined over time using whole-cell, patch-clamp techniques on right ventricular myocytes. Animals are euthanized 1 and 3 weeks after surgery with intraperitoneal injection of sodium pentobarbital. Ventricular myocytes are isolated enzymatically. Cellular hypertrophy is monitored by 2-photon microscopy (Zeiss LSM 510 NLO) to calculate cell volume and the whole-cell patch-clamp technique is used to measure membrane capacitance, an electrical index of membrane surface area. To measure cell volume, the voltage-sensitive dye 1-(3-sulfonatopropyl)-[…][b-[2-(di-n-butylamino)-6-naphthyl]vinyl]pyridium betaine (di-4-ANEPPS)-loaded cells are illuminated at 840 nm with a mode-locked Ti:sapphire laser (Mira 900, Coherent) and recorded in 3D. Images of spherical beads (Molecular Probes) are recorded under the same conditions to calculate the point spread function. Deconvolution is performed with Huygens (Bitplane AG). […] AP and K^+ are measured. […]

For `CC(=O)NCCCCCCNC(C)=O` [HMBA, Hexamethylene bisacetamide], the “activation of HSV” value (HSV) is listed as “activate viruses”, the VSMC proliferation [1] is listed as “inhibit human vascular smooth muscle cell (VSMC) proliferation” and the “cardiac hypertrophy by morphologic analyses” value (cardiac hypertrophy; certain patients) is listed as “reduces cardiac hypertrophy”. The most prominent toxicity (cardiac hypertrophy; patients) was “thrombocytopenia, generally reversible on cessation of administration”, the “activation of HIV” value (HIV) was “activate viruses” and the action potential ([2]; rats after myocardial infarction, 1 and 3 weeks) was “normal action potential”. The cellular hypertrophy ([2]; rats, three weeks after myocardial infarction) was “no signs of cellular hypertrophy”.
